From patent publication US4814485A, “4-aminobutanoic acid derivatives, process of preparation and use thereof” (Sanofi, priority 1985, dated 1989) come the findings set out here.

Broadly, the IC50 is the concentration that inhibits the measured activity by half.

The test deals with T1, human plasma renin (Homo sapiens, UniProt P00797).
T1 construct: human plasma renin activity; from tissue; host or cells: human plasma
T1 sequence (P00797 67-406): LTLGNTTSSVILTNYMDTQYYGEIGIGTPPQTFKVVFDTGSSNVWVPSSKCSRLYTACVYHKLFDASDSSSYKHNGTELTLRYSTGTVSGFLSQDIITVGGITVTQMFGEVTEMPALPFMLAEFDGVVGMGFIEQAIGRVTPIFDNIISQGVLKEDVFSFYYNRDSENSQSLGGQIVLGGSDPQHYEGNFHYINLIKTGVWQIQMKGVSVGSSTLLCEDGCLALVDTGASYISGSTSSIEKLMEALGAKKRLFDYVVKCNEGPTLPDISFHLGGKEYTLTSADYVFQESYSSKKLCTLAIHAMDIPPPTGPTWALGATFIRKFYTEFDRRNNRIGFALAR
Briefly: inhibitory action on the human plasma renin activity. The note with it: pH=6, method of European patent application No. 104,964, read-out: IC50 (dose of compound under study which causes 50% inhibition of the human plasma renin activity). The format is biochemical. The source says:
The peptide so obtained was studied for determining its inhibitory action on the human plasma renin activity using the method described in European patent application No. 104,964.

With “BOC-Phe-Nle-APHBA-Ala-Sta-OCH3 [SR 44205]”, the IC50 came out at 1000 nM.
